In US10577363B2, “Substituted piperidine compounds” (EPIZYME, INC., priority 2014, dated 2020):

Molecular target: SMYD3 (Homo sapiens (Human), UniProt Q9H7B4)
Test: SMYD3 biochemical assay (SPA, 3H-SAM methylation of MEKK2 protein substrate)
Conditions: read-out: SMYD3 Biochem IC50 (μM)*
Outline: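 SPA methyltransferase format: tag-cleaved human SMYD3, insect-cell GST-MEKK2 protein substrate, 3H-SAM donor, 30 min RT enzyme–compound preincubation, 100 uM cold SAM quench.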

| IC50 [µM] | SMILES |
| --- | --- |
| 0.728 | C[C@@H]1CC(NC(=O)c2cc(C3CC3)on2)CCN1C(=O)[C@H]1CCC[C@H](N)C1 (stereo partly drawn) [compound 174, N-((2R)-1-((1S,3S)-3-aminocyclohexane-1-carbonyl)-2-methylpiperidin-4-yl)-5-cyclopropylisoxazole-3-carboxamide] |
| 0.624 | C[C@H]1CC(NC(=O)c2cc(C3CC3)on2)CCN1C(=O)CCC1CCNC1 (stereo partly drawn) [compound 176, 5-cyclopropyl-N-((2S)-2-methyl-1-(3-(pyrrolidin-3-yl)propanoyl)piperidin-4-yl)isoxazole-3-carboxamide] |
| > 10 | C[C@H]1CC(NC(=O)c2cc(C3CC3)on2)CCN1C(=O)C1CNCC(O)C1 (stereo partly drawn) [compound 177, 5-cyclopropyl-N-((2S)-1-(5-hydroxypiperidine-3-carbonyl)-2-methylpiperidin-4-yl)isoxazole-3-carboxamide] |
| 2.02 | C[C@H]1CC(NC(=O)c2cc(C3CC3)on2)CCN1C(=O)C1CC2(CCNC2)C1 (stereo partly drawn) [compound 178, 5-cyclopropyl-N-((2S)-2-methyl-1-(6-azaspiro[3.4]octane-2-carbonyl)piperidin-4-yl)isoxazole-3-carboxamide] |
| 1.42 | C[C@H]1CC(NC(=O)c2cc(C3CC3)on2)CCN1C(=O)C1CC12CCNCC2 (stereo partly drawn) [compound 179, 5-cyclopropyl-N-((2S)-2-methyl-1-(6-azaspiro[2.5]octane-1-carbonyl)piperidin-4-yl)isoxazole-3-carboxamide] |
| 0.953 | C[C@@H]1CC(NC(=O)c2cc(C3CC3)on2)CCN1C(=O)CCC1CCNC1 (stereo partly drawn) [compound 180, 5-cyclopropyl-N-((2R)-2-methyl-1-(3-(pyrrolidin-3-yl)propanoyl)piperidin-4-yl)isoxazole-3-carboxamide] |
| 4.79 | N[C@H]1CC[C@@H](C(=O)N2CCC(NC(=O)c3cc(C4CC4)on3)CC2)C1 [compound 182, N-(1-((1R,3S)-3-aminocyclopentane-1-carbonyl)piperidin-4-yl)-5-cyclopropylisoxazole-3-carboxamide] |
| 2.67 | C[C@@H]1C[C@@H](NC(=O)c2cc(C3CC3)on2)CCN1C(=O)CCCCN [compound 184, N-((2R,4S)-1-(5-aminopentanoyl)-2-methylpiperidin-4-yl)-5-cyclopropylisoxazole-3-carboxamide] |
| 4.31 | C[C@@H]1C[C@@H](NC(=O)c2cc(C3CC3)on2)CCN1S(=O)(=O)Cc1ccccc1 [compound 185, N-((2R,4S)-1-(benzylsulfonyl)-2-methylpiperidin-4-yl)-5-cyclopropylisoxazole-3-carboxamide] |
| > 10 | C[C@@H]1C[C@@H](NC(=O)c2cc(C3CC3)on2)CCN1S(=O)(=O)CC(F)(F)F [compound 186, 5-cyclopropyl-N-((2R,4S)-2-methyl-1-((2,2,2-trifluoroethyl)sulfonyl)piperidin-4-yl)isoxazole-3-carboxamide] |
| 0.0723 | C[C@H]1C[C@H](NC(=O)c2cc(C3CC3)on2)CCN1S(=O)(=O)CCCN [compound 188, N-((2S,4R)-1-((3-aminopropyl)sulfonyl)-2-methylpiperidin-4-yl)-5-cyclopropylisoxazole-3-carboxamide] |
| 0.352 | CC[C@@H]1CN(C(=O)[C@H]2CC[C@H](N)CC2)CC[C@@H]1NC(=O)c1cc(C2CC2)on1 [compound 190, N-((3R,4S)-1-((1r,4R)-4-aminocyclohexane-1-carbonyl)-3-ethylpiperidin-4-yl)-5-cyclopropylisoxazole-3-carboxamide] |
| 7.08 | CCOC(=O)[C@@H]1CC(NC(=O)c2cc(C3CC3)on2)CCN1C(=O)[C@H]1CC[C@H](N)CC1 (stereo partly drawn) [compound 192, ethyl (2S)-1-((1r,4S)-4-aminocyclohexane-1-carbonyl)-4-(5-cyclopropylisoxazole-3-carboxamido)piperidine-2-carboxylate] |
| 2.87 | C[C@@H]1CN(C(=O)CCCN)CC[C@@H]1NC(=O)c1cc(C2CC2)on1 [compound 193, N-((3R,4S)-1-(4-aminobutanoyl)-3-methylpiperidin-4-yl)-5-cyclopropylisoxazole-3-carboxamide] |
| 1.37 | C[C@H]1CN(C(=O)CCCN)CC[C@H]1NC(=O)c1cc(C2CC2)on1 [compound 194, N-((3S,4R)-1-(4-aminobutanoyl)-3-methylpiperidin-4-yl)-5-cyclopropylisoxazole-3-carboxamide] |
| > 10 | C[C@@H]1CN(C(=O)CCCN)CC[C@H]1NC(=O)c1cc(C2CC2)on1 [compound 195, N-((3R,4R)-1-(4-aminobutanoyl)-3-methylpiperidin-4-yl)-5-cyclopropylisoxazole-3-carboxamide] |
| 6.91 | C[C@H]1CN(C(=O)CCCN)CC[C@@H]1NC(=O)c1cc(C2CC2)on1 [compound 196, N-((3S,4S)-1-(4-aminobutanoyl)-3-methylpiperidin-4-yl)-5-cyclopropylisoxazole-3-carboxamide] |
| > 10 | NCCCC(=O)N1CCC(NC(=O)c2cc(C3CC3)on2)C(F)(F)C1 (centres unmarked) [compound 197, N-(1-(4-aminobutanoyl)-3,3-difluoropiperidin-4-yl)-5-cyclopropylisoxazole-3-carboxamide] |
| 0.83 | NCCCC(=O)N1CCC(NC(=O)c2cc(C3CC3)on2)C2(CC2)C1 (centres unmarked) [compound 198, N-(5-(4-aminobutanoyl)-5-azaspiro[2.5]octan-8-yl)-5-cyclopropylisoxazole-3-carboxamide] |
| 2.23 | C[C@H]1CC(NC(=O)c2cc(C3CC3)on2)CCN1C(=O)N1CCC(N)CC1 (stereo partly drawn) [compound 201, N-((2S)-1-(4-aminopiperidine-1-carbonyl)-2-methylpiperidin-4-yl)-5-cyclopropylisoxazole-3-carboxamide] |
| 0.379 | CC1C(NC(=O)c2cc(C3CC3)on2)CCN(C(=O)[C@H]2CC[C@H](N)CC2)C1C (some centres unmarked) [compound 203, N-(1-((1r,4r)-4-aminocyclohexane-1-carbonyl)-2,3-dimethylpiperidin-4-yl)-5-cyclopropylisoxazole-3-carboxamide] |
| 4.68 | C[C@H]1CC(NC(=O)c2cc(C3CC3)on2)CCN1C(=O)CC1(CN)CCC1 (stereo partly drawn) [compound 204, N-((2S)-1-(2-(1-(aminomethyl)cyclobutyl)acetyl)-2-methylpiperidin-4-yl)-5-cyclopropylisoxazole-3-carboxamide] |
| 1.99 | C[C@@H]1CC(NC(=O)c2cc(C3CC3)on2)CCN1C(=O)CC1(CN)CCC1 (stereo partly drawn) [compound 205, N-((2R)-1-(2-(1-(aminomethyl)cyclobutyl)acetyl)-2-methylpiperidin-4-yl)-5-cyclopropylisoxazole-3-carboxamide] |
| 1.59 | CC1CNCCC1CC(=O)N1CCC(NC(=O)c2cc(C3CC3)on2)C[C@@H]1C (stereo partly drawn) [compound 206, 5-cyclopropyl-N-((2S)-2-methyl-1-(2-(3-methylpiperidin-4-yl)acetyl)piperidin-4-yl)isoxazole-3-carboxamide] |

| SMILES | IC50 [µM] |
| --- | --- |
| N[C@H]1CC[C@H](C(=O)N2C3CCC2CC(NC(=O)c2cc(C4CC4)on2)C3)CC1 (some centres unmarked) [compound 191, N-(8-((1r,4r)-4-aminocyclohexane-1-carbonyl)-8-azabicyclo[3.2.1]octan-3-yl)-5-cyclopropylisoxazole-3-carboxamide] | > 10 |
| NCCCC(=O)N1C2CCC1CC(NC(=O)c1cc(C3CC3)on1)C2 (centres unmarked) [compound 199, N-(8-(4-aminobutanoyl)-8-azabicyclo[3.2.1]octan-3-yl)-5-cyclopropylisoxazole-3-carboxamide] | 0.678 |
